Results on 53 molecules are retold here after patent US20250382280A1, “PYRAZOLE DERIVATIVES FOR THE INHIBITION OF PHAGOCYTOSIS” (Canadian Blood Services, priority 2022, published 2025).

This test has as its system phagocytosis of anti-D-opsonized Rh(D+) red cells by monocytes. Briefly: monocyte monolayer assay (MMA), in vitro phagocytosis assay. It counts as cell-based, human. The arrangement: key to Phagocytic index (PI): number of phagocytosed RBCs per 100 monocytes. As to conditions: for Phagocytic index (PI): PI = (# of phagocytic red blood cells)/(300 monocytes) * 100; for inhibition at 5 µM / IC50 / EC50: Homo sapiens, Monocyte; for IC50 / EC50: dose-inhibitory response; for IC50: 0.5-100 μM, read-out: IC50 for inhibition of phagocytosis. As to the method:
The MMA to screen compounds for their ability to inhibit phagocytosis was performed as previously described (Purohit, M. K. et al., Bioorg. Med. Chem. Lett. 2013; 23:2324-7; and Purohit, M. K. et al., Bioorg. Med. Chem. 2014; 22:2739-52.). Briefly, Mononuclear cells (PBMCs) were layered onto chamber slides and monocytes purified by adherence after 1 hr at 37° C. with 5% CO2. Drugs were solubilized in 100% DMSO and then diluted in Roswell Park Memorial Institute (RPMI) to the final concentration of 5 μM, as previously reported (8,9). Corresponding dimethyl sulfoxide (DMSO) volumes in RPMI medium were used as a control. After one hour, indicator Rh-positive red cells opsonized with anti-RhD were added to the chamber slides and then further incubated for 2 hours before fixing and counting phagocytosed red blood cells (RBCs) using phase-contrast microscopy. As a positive control for inhibition, Intravenous immunoglobulin (IVIg) was used, known to inhibit phagocytosis due to blocking of FcγRs. The phagocytosis index (PI) was determined as the number of phagocytosed RBCs in 100 monocytes. The percent inhibition of phagocytosis was determined by comparing the PI in each treated sample to the PI in the untreated sample, which was determined by normalizing the PI concentration in each treated sample (phagocytosis of opsonized RBCs with vehicle only, representing 100 percent phagocytosis.
Concentrations included 100 μM, 50 μM, 25 μM, 10 μM, 5 μM, 2.5 μM, 1 μM, and 0.5 μM.
The 80 selected pyrazole core compounds were screened using a concentration of 5 μM in the in vitro phagocytosis assay, referred to as the monocyte monolayer assay (MMA). Compounds were compared to a standard intravenous immunoglobulin (IVIg) at a concentration of 1 mg/mL.

Setting [1] is: 5 μM compound, screening of the 80 compounds, read-out: Average inhibition (% ± standard deviation).
Setting [2] is: 5 μM, anti-D-opsonized Rh(D+) red cells, read-out: Inhibition percentage.

SMILES strings stand for the structures. Read-outs that look alike come from different tables or passages of the source.

A word on the inhibition: it is the change of the read-out against control, counted positive when it falls. `CC(CCc1ccccc1)NC(=O)c1cnn(C)c1-n1cccc1` (stereo not shown) [KB-205]: the “Phagocytic index (PI)” value (5 μM) turned out to be 19. Further, the inhibition at 5 µM runs as follows: under setting [1], 47 ± 0.98%; under setting [2], 47%.

With `COc1ccc(C2=NN(C(C)=O)C(c3ccco3)C2)cc1OC` (stereo not shown) [KB-154], under setting [1], the inhibition at 5 µM came out at 2 ± 5.19%.

`Cc1n[nH]c(C)c1Sc1ccc(Cl)cc1` [KB-138]: the inhibition at 5 µM under setting [1] is 38 ± 6.56%.

For the molecule `COc1ccc(-c2cc(C(=O)O)nn2C2CCS(=O)(=O)C2)cc1` (stereo not shown) [KB-185], the inhibition at 5 µM under setting [1] is -3 ± 3.6%.

For `Cc1cc(-c2ccco2)n(-c2ccccc2)n1` [KB-135], under setting [1], the inhibition at 5 µM was determined as 18 ± 2.7%.

Regarding `CCOc1ccc(NC(=O)c2cnn(-c3ccccc3)c2NC(=O)c2ccco2)cc1` [KB-140], under setting [1], the inhibition at 5 µM came out at 31 ± 7.84%.

As for `CCOC(=O)c1cnn(-c2ncnc3c2cnn3-c2ccc(F)cc2)c1N` [KB-199], the “Phagocytic index (PI)” value (5 μM) was 40. For the same molecule, the inhibition at 5 µM runs as follows: under setting [1], 40 ± 5.46%; under setting [2], 40%.

On to `Cc1cc(C)n(C(=O)c2ccoc2C)n1` [KB-142], for which, under setting [1], the inhibition at 5 µM stood at 11 ± 6.51%.

Regarding `CCOC(=O)c1cnn(-c2nc3sc4c(c3c(=O)[nH]2)CCCC4)c1N` [KB-162], the inhibition at 5 µM under setting [1] was -37 ± 2.59%.

Take `Cc1c(Nc2ncnc3c2cnn3-c2ccccc2)c(=O)n(-c2ccccc2)n1C` [KB-149]: under setting [1], the inhibition at 5 µM worked out at 0%.

Turning to `O=C(NCc1ccncc1)c1cnn(-c2ccccc2F)c1-n1cccc1` [KB-203], under setting [1], the inhibition at 5 µM amounted to 27 ± 2.72%.

For the molecule `CCOC(=O)c1c(N)nn(C(=O)CC)c1-c1ccccc1` [KB-156], under setting [1], the inhibition at 5 µM stood at 2 ± 6.64%.

In the case of `Cn1cc(Cl)c(C(=O)Nc2ccc(F)cc2F)n1` [KB-148], under setting [1], the inhibition at 5 µM was 28 ± 9.62%.

As to `Cc1c(S(=O)(=O)N2CCCC2c2ccccc2Cl)cnn1C(F)F` (stereo not shown) [KB-197], under setting [1], the inhibition at 5 µM amounted to 45 ± 4.97%.

For the molecule `COc1cc(-c2cc[nH]n2)cc(OC)c1OC` [KB-194], the inhibition at 5 µM under setting [1] stood at 39 ± 4.96%.

Take `Cc1ccccc1C1CCCN1C(=O)Cn1nc(C(F)(F)F)cc1C` (stereo not shown) [KB-196]: the inhibition at 5 µM under setting [1] was 24 ± 5.76%.

As to `Cc1c(NC(=O)CSc2nc3c(c(=O)[nH]2)CCC3)c(=O)n(-c2ccccc2)n1C` [KB-186], the “Phagocytic index (PI)” value (5 μM) amounted to 28. Moreover, the inhibition at 5 µM under setting [1] was determined as 55 ± 8.43% and the inhibition at 5 µM under setting [2] stood at 55%.

In the case of `COc1ccc(CNC(=O)c2c(Cl)cnn2C)cc1OC` [KB-178], where the note is “5 μM”, the “Phagocytic index (PI)” value is given as 29. Further, the inhibition at 5 µM was found to be 53 ± 5.11% under setting [1] and 53% under setting [2].

In the case of `CCn1cc(S(=O)(=O)NCCc2ccc(OC)c(OC)c2)cn1` [KB-179], the “Phagocytic index (PI)” value (5 μM) is 14. Also, the inhibition at 5 µM runs as follows: under setting [1], 53 ± 1.18%; under setting [2], 53%.

As to `CCOC(=O)c1cnn(-c2ccccc2)c1NC(=O)CSc1nc(SC)ns1` [KB-171], the inhibition at 5 µM under setting [1] turned out to be 7 ± 0.39%.

Consider `Cc1nn(C)cc1S(=O)(=O)NCc1ccccc1Cl` [KB-180], for which, under setting [1], the inhibition at 5 µM is -42 ± 8.81%.

`Cc1[nH]n(-c2ccccc2)c(=O)c1C1(C(F)(F)F)C(=O)Nc2c1c(=O)[nH]c(=O)n2Cc1ccccc1` (stereo not shown) [KB-167]: where the note is “5 μM”, the “Phagocytic index (PI)” value was 14. Besides, the inhibition at 5 µM reads like this: under setting [1], 53 ± 4.18%; under setting [2], 53%.

For the molecule `CCOC(=O)c1c(C)nn(-c2nc(C)cc(C)n2)c1N` [KB-181], the “Phagocytic index (PI)” value (5 μM) worked out at 37. Besides, the inhibition at 5 µM was -11 ± 10.3% under setting [1] and 45% under setting [2].

In the case of `Cc1cc(C)n(S(=O)(=O)c2ccccc2)n1` [KB-137], the inhibition at 5 µM under setting [1] was 10 ± 1.21%.

Consider `O=C(Nc1ccncc1)c1cc(C2CC2)nn1-c1ccccc1` [KB-204], for which the inhibition at 5 µM under setting [1] is 36 ± 3.6%.

In the case of `CCOC(=O)c1cnn(C)c1NC(=O)C(CC)Sc1cc(C)ncn1` (stereo not shown) [KB-184], the inhibition at 5 µM under setting [1] came out at 7 ± 2.92%.

Take `Cc1ccc2nc(-c3ccc4c(c3)OCO4)cc(C(=O)Nc3c(C)n(C)n(-c4ccccc4)c3=O)c2c1` [KB-163]: the inhibition at 5 µM under setting [1] is -30 ± 1.77%.

Take `Cn1ncc(I)c1C(=O)Nc1cccc2ccccc12` [KB-160]: under setting [1], the inhibition at 5 µM was -2 ± 5.32%.

On to `COc1ccc(S(=O)(=O)n2cccn2)cc1C(C)(C)C` [KB-173], for which, under setting [1], the inhibition at 5 µM was -8 ± 8.88%.

In general, IC50 refers to the point on the concentration scale where inhibition reaches its midpoint. As a reminder, the EC50 is the concentration at which the effect is half-maximal. `O=C(Nc1nccs1)c1cnn(-c2ccccc2)c1-n1cccc1` [KB-210]: the 50% inhibitory concentration (IC50) is 22.1 µM and the EC50 was over 10 µM. Further, the “Phagocytic index (PI)” value (5 μM) is 11. Besides, the inhibition at 5 µM under setting [1] was 69 ± 5.32%. For the same molecule, the inhibition at 5 µM under setting [2] worked out at 69%.

In the case of `Cn1ncc(Br)c1C(=O)Oc1ccccc1Cl` [KB-147], under setting [1], the inhibition at 5 µM turned out to be 0%.

For `CC(=O)n1nc(C)c(S(=O)(=O)N2CCCC2)c1C` [KB-188], under setting [1], the inhibition at 5 µM was -26 ± 7.94%.

With `CCn1cc(Br)c(C(=O)Nc2cc(Cl)ccc2OC)n1` [KB-146], the inhibition at 5 µM under setting [1] is 10 ± 9.56%.

As to `Cn1ncc(Br)c1C(=O)N1CCCC1c1ccc(F)cc1` (stereo not shown) [KB-192], the inhibition at 5 µM under setting [1] is -29 ± 9.54%.

As for `Cc1cc(NC(=O)c2cnn3c2NC(c2ccco2)CC3C(F)(F)F)n(-c2ccccc2)n1` (stereo not shown) [KB-168], the inhibition at 5 µM under setting [1] came to 23 ± 3.86%.

Consider `COC(=O)c1n[nH]c(N)c1Cl` [KB-134], for which, under setting [1], the inhibition at 5 µM turned out to be 9 ± 6.99%.

Take `N#CCCn1cc(C(=O)Nc2nccs2)c(-c2ccc3c(c2)OCCO3)n1` [KB-165]: the inhibition at 5 µM under setting [1] stood at 33 ± 5.3%.

As to `CCn1ncc(Br)c1C(=O)NC1CCCCC1` [KB-150], the inhibition at 5 µM under setting [1] amounted to 24 ± 8.58%.

Turning to `Cc1c(NC(=O)c2ccn3c(C(F)(F)F)cc(-c4ccccc4)nc23)c(=O)n(-c2ccccc2)n1C` [KB-169], the inhibition at 5 µM under setting [1] is 0%.

In the case of `O=C1NC(=O)C2C1C(c1ccc(O)cc1)NN2Cc1ccccc1` (stereo not shown) [KB-157], under setting [1], the inhibition at 5 µM came to 3 ± 9.96%.

Regarding `Cc1cccc(OCCCc2c(C)n[nH]c2C)c1C` [KB-139], the inhibition at 5 µM under setting [1] was 6 ± 3.48%.

Take `Cc1sc2ncnc(-n3ncc(C#N)c3N)c2c1C` [KB-143]: under setting [1], the inhibition at 5 µM was found to be 10 ± 6.87%.

In the case of `CCc1ccc(C2CC(c3ccccc3)=NN2S(C)(=O)=O)cc1` (stereo not shown) [KB-155], under setting [1], the inhibition at 5 µM amounted to 8 ± 9.35%.

Turning to `CSc1cccc(NC(=O)c2cnn(C)c2-n2cccc2)c1` [KB-212], under “5 μM”, the “Phagocytic index (PI)” value stood at 19. For the same molecule, the inhibition at 5 µM is, setting by setting: under setting [1], 47 ± 9.67%; under setting [2], 47%.

In the case of `CCn1nccc1C1CCCN1S(=O)(=O)c1cc(C)c(C)cc1C` (stereo not shown) [KB-198], the IC50 was 8.43 µM and the EC50 is over 10 µM. The “Phagocytic index (PI)” value (5 μM) stood at 9. Moreover, the inhibition at 5 µM under setting [1] stood at 75 ± 4.76%. Besides, the inhibition at 5 µM under setting [2] is 75%.

As for `O=c1cc(CSc2nc3ccccc3s2)[nH]c2[nH]n(-c3ccccc3)c(=O)c12` [KB-191], under setting [1], the inhibition at 5 µM is -23 ± 7.85%.

On to `Cc1cc(C)n(C(=O)COc2ccccc2C)n1` [KB-141], for which, under setting [1], the inhibition at 5 µM was 36 ± 9.37%.

As for `COc1ccc(-c2cc(C(=O)NCCc3c[nH]c4ccccc34)[nH]n2)cc1` [KB-213], the “Phagocytic index (PI)” value (5 μM) was found to be 13. The inhibition at 5 µM stood at 64 ± 8.74% under setting [1] and 64% under setting [2].

For the molecule `CCOC(=O)c1cnn(-c2ccccc2)c1NC(=O)Cc1cccc(OC)c1` [KB-159], the inhibition at 5 µM under setting [1] is 15 ± 8.4%.

In the case of `Cc1cc2c(cc1C)NC(c1c(C)n(C)n(-c3ccccc3)c1=O)C1=C(CC(C)(C)CC1=O)N2` (stereo not shown) [KB-153], under setting [1], the inhibition at 5 µM is 8 ± 8.3%.

For `FC(F)(F)c1cc(-c2cccs2)nc(-n2nc(C(F)(F)F)c3c2CCC3)n1` [KB-211], the inhibition at 5 µM under setting [1] came to 33 ± 2.31%.

Consider `CCOC(=O)C1=NNC2C(=O)N(CC)C(=O)C12` (stereo not shown) [KB-133], for which, under setting [1], the inhibition at 5 µM was found to be 24 ± 8.98%.

For `Cc1c(NC(=O)C2CCN(S(=O)(=O)c3cccs3)CC2)c(=O)n(-c2ccccc2)n1C` [KB-145], the inhibition at 5 µM under setting [1] came out at 4 ± 0.06%.
